Species on record: Rattus norvegicus
Test: Open TG-GATES - Regimen: Single
Assay type: toxicity, organism-based, Sprague-Dawley
Parameters: regimen Single, gender Male, age 6 weeks
Conditions: in vivo, po, 100 mg/kg, route gavage, dose level High; for Bas / Eos / Hb / Ht / Lym / MCH / MCHC / MCV / Mono / Neu / Plat / RBC / Ret / WBC: tissue Blood; for KIDNEY_L / KIDNEY_R / KIDNEY_TOTAL: tissue Kidney; for LIVER: tissue Liver; for A/G / ALP / ALT / AST / BUN / CRE / Ca / Cl / DBIL / GLC / IP / K / LDH / Na / PL / RALB / TBIL / TC / TG / TP / gamma-GTP: tissue Plasma

SMILES: Cc1ccc2cc3c(ccc4ccccc43)c3c2c1CC3 [3-METHYLCHOLANTHRENE]
- TERMINAL_BW (3 h): 211 g
- Bas (3 h): 0%
- Eos (3 h): 1%
- Hb (3 h): 12.4 g/dL
- Ht (3 h): 38.7%
- Lym (3 h): 74.4%
- MCH (3 h): 20.1 pg
- MCHC (3 h): 32.2%
- MCV (3 h): 62.6 fL
- Mono (3 h): 3.2%
- Neu (3 h): 21%
- Plat (3 h): 125.2 x10_4/uL
- RBC (3 h): 618.4 x10_4/ul
- Ret (3 h): 9.2%
- WBC (3 h): 117.6 x10_2/uL
- KIDNEY_L (3 h): 0.9 g
- KIDNEY_R (3 h): 0.9 g
- KIDNEY_TOTAL (3 h): 1.8 g
- LIVER (3 h): 9.5 g
- A/G (3 h): 1
- ALP (3 h): 1507 IU/L
- ALT (3 h): 44.4 IU/L
- AST (3 h): 77.4 IU/L
- BUN (3 h): 12.9 mg/dL
- CRE (3 h): 0.1 mg/dL
- Ca (3 h): 10.8 mg/dL
- Cl (3 h): 101.9 meq/L
- DBIL (3 h): 0.002 mg/dL
- GLC (3 h): 180.4 mg/dL
- IP (3 h): 8.7 mg/dL
- K (3 h): 4.3 meq/L
- LDH (3 h): 276.8 IU/L
- Na (3 h): 139.4 meq/L
- PL (3 h): 178.2 mg/dL
- RALB (3 h): 2.9 g/dL
- TBIL (3 h): 0.012 mg/dL
- TC (3 h): 89.8 mg/dL
- TG (3 h): 164.2 mg/dL
- TP (3 h): 5.7 g/dL
- gamma-GTP (3 h): 0.7 IU/L
- TERMINAL_BW (6 h): 206.7 g
- Bas (6 h): 0%
- Eos (6 h): 0.2%
- Hb (6 h): 12.6 g/dL
- Ht (6 h): 38.9%
- Lym (6 h): 75.6%
- MCH (6 h): 20.6 pg
- MCHC (6 h): 32.4%
- MCV (6 h): 63.6 fL
- Mono (6 h): 4.2%
- Neu (6 h): 18.8%
- Plat (6 h): 136.5 x10_4/uL
- RBC (6 h): 612 x10_4/ul
- Ret (6 h): 9%
- WBC (6 h): 135.9 x10_2/uL
- KIDNEY_L (6 h): 0.9 g
- KIDNEY_R (6 h): 0.9 g
- KIDNEY_TOTAL (6 h): 1.7 g
- LIVER (6 h): 8.9 g
- A/G (6 h): 1
- ALP (6 h): 1605.4 IU/L
- ALT (6 h): 37.2 IU/L
- AST (6 h): 71.4 IU/L
- BUN (6 h): 8.3 mg/dL
- CRE (6 h): 0.1 mg/dL
- Ca (6 h): 10.6 mg/dL
- Cl (6 h): 104.8 meq/L
- DBIL (6 h): 0.002 mg/dL
- GLC (6 h): 175.4 mg/dL
- IP (6 h): 9.2 mg/dL
- K (6 h): 4.3 meq/L
- LDH (6 h): 203.2 IU/L
- Na (6 h): 141 meq/L
- PL (6 h): 165.6 mg/dL
- RALB (6 h): 2.9 g/dL
- TBIL (6 h): 0.022 mg/dL
- TC (6 h): 85.6 mg/dL
- TG (6 h): 83.5 mg/dL
- TP (6 h): 5.7 g/dL
- gamma-GTP (6 h): 0.8 IU/L
- TERMINAL_BW (9 h): 206.7 g
- Bas (9 h): 0%
- Eos (9 h): 0.6%
- Hb (9 h): 12.7 g/dL
- Ht (9 h): 39%
- Lym (9 h): 75.8%
- MCH (9 h): 20.6 pg
- MCHC (9 h): 32.4%
- MCV (9 h): 63.6 fL
- Mono (9 h): 3.4%
- Neu (9 h): 19.4%
- Plat (9 h): 125.7 x10_4/uL
- RBC (9 h): 613.8 x10_4/ul
- Ret (9 h): 8.6%
- WBC (9 h): 108.2 x10_2/uL
- KIDNEY_L (9 h): 0.9 g
- KIDNEY_R (9 h): 0.9 g
- KIDNEY_TOTAL (9 h): 1.8 g
- LIVER (9 h): 9 g
- A/G (9 h): 1
- ALP (9 h): 1396.4 IU/L
- ALT (9 h): 34.4 IU/L
- AST (9 h): 70.4 IU/L
- BUN (9 h): 9.8 mg/dL
- CRE (9 h): 0.1 mg/dL
- Ca (9 h): 10.6 mg/dL
- Cl (9 h): 104 meq/L
- DBIL (9 h): 0.002 mg/dL
- GLC (9 h): 179.4 mg/dL
- IP (9 h): 10.6 mg/dL
- K (9 h): 4.6 meq/L
- LDH (9 h): 248.8 IU/L
- Na (9 h): 142.5 meq/L
- PL (9 h): 150.4 mg/dL
- RALB (9 h): 2.8 g/dL
- TBIL (9 h): 0.004 mg/dL
- TC (9 h): 79.2 mg/dL
- TG (9 h): 95 mg/dL
- TP (9 h): 5.6 g/dL
- gamma-GTP (9 h): 0.6 IU/L
- TERMINAL_BW (24 h): 218 g
- Bas (24 h): 0%
- Eos (24 h): 0%
- Hb (24 h): 12.8 g/dL
- Ht (24 h): 39.2%
- Lym (24 h): 81.2%
- MCH (24 h): 20 pg
- MCHC (24 h): 32.6%
- MCV (24 h): 61.6 fL
- Mono (24 h): 3%
- Neu (24 h): 14.6%
- Plat (24 h): 124.3 x10_4/uL
- RBC (24 h): 636.8 x10_4/ul
- Ret (24 h): 8.1%
- WBC (24 h): 127.1 x10_2/uL
- KIDNEY_L (24 h): 0.9 g
- KIDNEY_R (24 h): 0.9 g
- KIDNEY_TOTAL (24 h): 1.9 g
- LIVER (24 h): 11.2 g
- A/G (24 h): 1
- ALP (24 h): 1595.4 IU/L
- ALT (24 h): 38.6 IU/L
- AST (24 h): 69.4 IU/L
- BUN (24 h): 16.7 mg/dL
- CRE (24 h): 0.2 mg/dL
- Ca (24 h): 11 mg/dL
- Cl (24 h): 103.1 meq/L
- DBIL (24 h): 0.002 mg/dL
- GLC (24 h): 171.4 mg/dL
- IP (24 h): 7.4 mg/dL
- K (24 h): 4.7 meq/L
- LDH (24 h): 188.8 IU/L
- Na (24 h): 141.6 meq/L
- PL (24 h): 181.2 mg/dL
- RALB (24 h): 2.8 g/dL
- TBIL (24 h): 0 mg/dL
- TC (24 h): 92 mg/dL
- TG (24 h): 209.4 mg/dL
- TP (24 h): 5.5 g/dL
- gamma-GTP (24 h): 0.9 IU/L

— ChEMBL document CHEMBL3885861, “Open TG-GATES”
